Measurements taken from paper PMC8191315 (European Journal of Medicinal Chemistry, 2021).

Each compound was assayed against SARS-CoV-2 RdRp (Severe acute respiratory syndrome coronavirus 2, UniProt P0DTD1). Conditions: 5 μM and 10 μM, HEK293T cells, 24 h, real-time qRT-PCR.
Assay type: cell-based
For `O=C(CSc1c[nH]c2cccc(Br)c12)N(Cc1ccccc1)Cc1ccccc1` [6d2, N,N-dibenzyl-2-((4-bromo-1H-indol-3-yl)thio)acetamide], the “levels of viral plus- and minus-strand Gluc RNA” value was “decreased the levels of viral plus- and minus-strand Gluc RNA in a dose-dependent manner”. With `CN(Cc1ccccc1)C(=O)CSc1c[nH]c2ccccc12` [6b5, 2-((1H-indol-3-yl)thio)-N-benzyl-N-methylacetamide] the “levels of viral plus- and minus-strand Gluc RNA” value was “decreased the levels of viral plus- and minus-strand Gluc RNA in a dose-dependent manner”. For `COc1ccccc1CNC(=O)CSc1c[nH]c2c(-c3ccccc3)cccc12` [6c9, N-(2-methoxybenzyl)-2-((7-phenyl-1H-indol-3-yl)thio)acetamide], the “levels of viral plus- and minus-strand Gluc RNA” value was “decreased the levels of viral plus- and minus-strand Gluc RNA in a dose-dependent manner”. For `O=C(CSc1c[nH]c2ccccc12)N(Cc1ccccc1)Cc1ccccc1` [6b2, N,N-dibenzyl-2-((1H-indol-3-yl)thio)acetamide], the “levels of viral plus- and minus-strand Gluc RNA” value was “decreased the levels of viral plus- and minus-strand Gluc RNA in a dose-dependent manner”. With `CCOc1ccccc1CN(OC)C(=O)CSc1c[nH]c2cccc(Br)c12` [6d5, N-(2-ethoxybenzyl)-2-((4-bromo-1H-indol-3-yl)thio)-N-methoxyacetamide] the “levels of viral plus- and minus-strand Gluc RNA” value was “decreased the levels of viral plus- and minus-strand Gluc RNA in a dose-dependent manner”.
